{"source": "patent US7754202B1", "about": "“Methods of controlling cell differentiation and growth using a fusion protein and a drug” (Stanford University, priority 1998, dated 2010)", "key": {"[1]": {"system": "primary murine bone marrow cells expressing the F36Vmpl fusion protein", "assay": "Response of marrow cells expressing F36Vmpl (MFM vector) to AP20187", "format": "cell-based", "conditions": "compared with FK1012 (data not shown)", "source_text": "A MSCVneo-based retroviral vector encoding a fusion protein identical to F1mpl except for the presence of the F36V mutation was built and tested. This vector, MFM (FIG. 4), has been used to derive a genetically stable, high titer ecotropic producer cell line using the methods described in Example 5."}, "[2]": {"system": "genetically modified progenitor cells in the femur", "assay": "In vivo selection with MFM vector: G418 resistant colonies in the femur (bone marrow aspirates)", "design": "species or system B6D2F1 mice", "experimental": "(§1) Marrow cells from B6D2F1 mice were transduced as follows: fluorouracil, 150 mg/kg, was injected intraperitoneally into female B6D2F1 mice. Forty-eight hours later, marrow cells were harvested and cultured for 48 hours in DMEM containing 16% fetal calf serum, 5% IL-3 conditioned medium, 100 ng/ml recombinant IL-6, and 50 ng/ml recombinant murine stem cell factor in a 37° C., 5% CO2 incubator. After 48 hours of prestimulation, cells were transferred onto irradiated (1500 cGy) producer cells and cocultivated using identical growth conditions except for the addition of polybrene (8 μg per ml). The producer cells generate retroviral particles containing the MFM vector that are able to infect the bone marrow cells. Therefore, the MFM retrovirus is introduced into the bone marrow cells during the period of cocultivation. Marrow cells were harvested after 48 hours of cocultivation and 8×10^6 cells were injected into each of 10 lethally irradiated (1050 cGy) B6D2F1 mice. Immediately following transplantation, five mice received intraperitoneal injections of AP20187 daily at a dose of 2 mg/kg/day for forty consecutive days. Five control mice received daily injections of the drug diluent (see below) without AP20187.\n(§2) AP20187 was prepared as follows: Drug was solubilized in ethanol, then PEG 400 was added. Finally, a mixture of water and Tween 80 was added to achieve final concentrations of ethanol of 4%, PEG400 10% and Tween 1.4%.\nThe presence of the neo gene in the MFM vector allows the frequency of genetically modified progenitor cells to be determined by performing clonogenic assays either in the presence or absence of G418. After 32 days of drug administration, bone marrow aspirates were performed and the frequency of clonogenic progenitor cells was determined. Results are shown as follows:\nSufficient numbers of bone marrow cells were obtained on the aspirates of one control and one drug treated mouse (numbers 191 and 195, respectively) to permit Southern analysis."}, "[3]": {"system": "spleen", "assay": "In vivo selection with MFM vector: spleen weight", "design": "species or system B6D2F1 mice", "conditions": "after 40 days", "experimental": "as §1, §2\n(§3) After 40 days of drug administration, splenectomies were performed; spleens were weighed and spleen cells were tested in clonogenic assays to determine the frequency of genetically modified progenitor cells."}, "[4]": {"system": "genetically modified progenitor cells in the spleen", "assay": "In vivo selection with MFM vector: G418 resistant colonies in the spleen", "design": "species or system B6D2F1 mice", "conditions": "after 40 days", "experimental": "as §1, §2, §3"}, "[5]": {"system": "hematopoietic cell subsets in the spleen", "assay": "In vivo selection with MFM vector: flow cytometry of hematopoietic cell subsets in the spleen", "design": "species or system B6D2F1 mice; TER119 (erythroid) cells in the spleen / CD11b (myeloid) cells in the spleen / CD41 (megakaryocytic) cells in the spleen / CD3 (T-lymphoid) cells in the spleen / B220 (B-lymphoid) cells in the spleen: unit not given here", "experimental": "as §1, §2\nTo characterize the types of cells expanding in response to AP20187, flow cytometry was performed using antibodies directed against myeloid (CD11b), erythroid (TER119), megakaryocytic (CD41), B-lymphoid (B-220) and T-lymphoid (CD3) cells."}, "[6]": {"system": "MH cells expressing chimeric receptors", "assay": "DNA synthesis (BrdU incorporation) in MH cells expressing FKBP chimeric receptors", "format": "cell-based, monkey (Macaca fascicularis)", "conditions": "serum-starved MH cells, 3 days after AP20187 addition; compared with nonspecific induction by AP20187 alone", "experimental": "FIG. 5. DNA synthesis in MH cells expressing FKBP chimeric receptors after stimulation with AP20187. 5×10^4 MH cells were plated per well (24 well plate) in the presence of FCS. 24 hours after retrovirus infection, culture medium was replaced by serum-free medium and cells were starved for 6 days. At this time point AP20187 was added to one set of cells and BrdU incorporation was measured three days after induction. BrdU labeled cells were counted in four independent areas for each sample (N=3) and expressed as the percentage of BrdU (+) cells. The (+) and (−) symbols after the chimeric gene designations indicates the presence and absence of AP20187, respectively. […]\nTo test the proliferation properties of MH cells, cellular DNA replication based on incorporation of BrdU was analyzed. […] After this, BrdU labeled DNA was detected in cell nuclei by immuno-histochemistry with BrdU-specific antibodies.\nRetroviruse vectors expressing the chimeric receptors provided in TABLE 9 were prepared as a means for gene transfer into hepatocytes. […] Next, the percentage of MH cells grown in the presence of FCS and HGF that can be transduced by an amphotropic β-Gal virus after an incubation of 5 hours at an MOI of 1 cfu per cell was determined. […] At this time point AP20187 was added to one set of cells and BrdU incorporation was measured three days after induction. […]"}, "[7]": {"assay": "In vivo half life"}, "[8]": {"target": "endogenous FKBP12 (Homo sapiens, UniProt P62942)", "sequence (P62942 whole entry, species assumed)": "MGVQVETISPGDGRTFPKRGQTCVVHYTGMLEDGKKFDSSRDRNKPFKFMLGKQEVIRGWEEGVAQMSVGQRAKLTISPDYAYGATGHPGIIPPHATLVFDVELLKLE", "assay": "Binding to endogenous FKBP12"}, "[9]": {"system": "cells", "assay": "Immunosuppressive activity or other toxicity to cells", "format": "cell-based", "conditions": "in experiments to date"}, "[10]": {"conditions": "individual mice, 2 mg/kg/day i.p., 2 mg/kg/day"}, "[11]": {"conditions": "group mean, spleen, flow cytometry"}, "[12]": {"conditions": "individual mice, flow cytometry, after 40 days"}}, "note": "Values joined by “and” are separate entries in the source; they are usually repeats but may differ in a detail not shown here. Identical values can stand only once.", "data": [{"smiles": "CC[C@H](C(=O)N1CCCC[C@H]1C(=O)O[C@H](CCc1ccc(OC)c(OC)c1)c1cccc(OCC(=O)NCC(CNC(=O)COc2cccc([C@@H](CCc3ccc(OC)c(OC)c3)OC(=O)[C@@H]3CCCCN3C(=O)[C@@H](CC)c3cc(OC)c(OC)c(OC)c3)c2)CN(C)C)c1)c1cc(OC)c(OC)c(OC)c1", "note": "[AP20187]", "values": [{"measurement": "proliferative and differentiative responses", "setting": "[1]", "result": "indistinguishable from those we have observed using FK1012"}, {"measurement": "mean number of G418 resistant colony forming cells in the femur relative to control group", "setting": "[2]; after 32 days, did not achieve statistical significance", "result": "approximately 2 fold"}, {"measurement": "Percentage of G418 Resistant Colonies (femur), Mean", "setting": "[2]; group mean (+/−), 2 mg/kg/day i.p., after 32 days", "result": "20.9 (+/−13.3) %"}, {"measurement": "Percentage of G418 Resistant Colonies (femur)", "setting": "[2]; individual mice, 2 mg/kg/day i.p., after 32 days of drug administration, 2 mg/kg/day", "result": "39.3% and 14.7% and 17.7% and 28.1% and 4.6%"}, {"measurement": "proviral signal by Southern analysis of bone marrow aspirates", "setting": "[2]; one drug treated mouse (195) versus one control (191)", "result": "detectable only in the mouse that had received AP20187"}, {"measurement": "Spleen Weight, Mean", "setting": "[3]; group mean (+/−)", "result": "208.9 (+/−43.5) mg"}, {"measurement": "Spleen Weight", "setting": "[3]; [10]", "result": "200 mg and 190 mg and 279 mg and 213 mg and 162 mg"}, {"measurement": "spleen size", "setting": "[3]; versus control group", "result": "significant increase in spleen size"}, {"measurement": "G418 Resistant (spleen colonies), Mean", "setting": "[4]; group mean (+/−)", "result": "9 (+/−8.7%)"}, {"measurement": "G418 Resistant (spleen colonies)", "setting": "[4]; [10]", "result": "4.1% and 5.2% and 6.4% and 24.5% and 4.8%"}, {"measurement": "percentage of genetically modified progenitor cells in the spleen", "setting": "[4]; versus control group", "result": "increased percentage of genetically modified progenitor cells in the spleen that did not achieve statistical significance"}, {"measurement": "B220, mean (standard deviation)", "setting": "[5]; [11]", "result": "29.2 (5.1)"}, {"measurement": "CD3, mean (standard deviation)", "setting": "[5]; [11]", "result": "12.2 (8.2)"}, {"measurement": "CD11b, mean (standard deviation)", "setting": "[5]; [11]", "result": "10.2 (2.5)"}, {"measurement": "CD41, mean (standard deviation)", "setting": "[5]; [11]", "result": "1.4 (1.1)"}, {"measurement": "TER119, mean (standard deviation)", "setting": "[5]; [11]", "result": "27.7 (8.1)"}, {"measurement": "B220 (B-lymphoid) cells in the spleen", "setting": "[5]; [12]", "result": "31.6 and 24.5 and 23.0 and 33.2 and 33.8"}, {"measurement": "CD3 (T-lymphoid) cells in the spleen", "setting": "[5]; [12]", "result": "24.4 and 8.4 and 4.8 and 6.5 and 16.8"}, {"measurement": "CD11b (myeloid) cells in the spleen", "setting": "[5]; [12]", "result": "9.5 and 7.8 and 12.8 and 8.2 and 13.0"}, {"measurement": "CD41 (megakaryocytic) cells in the spleen", "setting": "[5]; [12]", "result": "0.7 and 0.5 and 1.1 and 3.3 and 1.4"}, {"measurement": "TER119 (erythroid) cells in the spleen", "setting": "[5]; [12]", "result": "21.0 and 28.2 and 40.8 and 27.4 and 21.1"}, {"measurement": "change in hematopoietic cell subsets in the spleen", "setting": "[5]; versus control group", "result": "increase in myeloid (CD11b-positive) and erythroid (TER119-positive) cells in the spleen"}, {"measurement": "effect on DNA proliferation (BrdU incorporation)", "setting": "[6]", "result": "clear effect on DNA proliferation in MH expressing chimeric receptors"}, {"measurement": "in vivo half life", "setting": "[7]", "result": 9, "unit": "h"}, {"measurement": "binding to endogenous FKBP12", "setting": "[8]", "result": "does not bind to endogenous FKBP12"}, {"measurement": "immunosuppressive activity or other toxicity to cells", "setting": "[9]", "result": "no immunosuppressive activity or other toxicity to cells"}]}]}
